Activity calls are given as the source filed them. The rule behind the calls is not given here.
Legend:
Staphylococcus aureus [1] = assay: Antibacterial activity against Staphylococcus aureus at 1 ug/disk; assay type: functional; details: read-out: IZ
Pseudomonas aeruginosa [2] = assay: Antibacterial activity against Pseudomonas aeruginosa at 1 ug/disk; assay type: functional; details: read-out: IZ
Bacillus subtilis = assay: Antibacterial activity against Bacillus subtilis; assay type: functional, organism-based
Candida albicans = assay: Antifungal activity against Candida albicans; assay type: functional, organism-based
Rhizomucor miehei = assay: Antifungal activity against Mucor miehei; assay type: functional, organism-based
Escherichia coli [3] = assay: Antibacterial activity against Escherichia coli at 1 ug/disk; assay type: functional; details: read-out: IZ
Pseudomonas aeruginosa [4] = assay: Antibacterial activity against Pseudomonas aeruginosa at 30 ug/disk; assay type: functional
Escherichia coli [5] = assay: Antibacterial activity against Escherichia coli at 30 ug/disk; assay type: functional, organism-based
Staphylococcus aureus [6] = assay: Antibacterial activity against Staphylococcus aureus at 30 ug/disk; assay type: functional; details: for zone of inhibition at 30 µg/disc: read-out: IZ
Staphylococcus aureus [7] = assay: Antibacterial activity against Staphylococcus aureus at 24 ug/disk; assay type: functional, organism-based
Pseudomonas aeruginosa [8] = assay: Antibacterial activity against Pseudomonas aeruginosa at 24 ug/disk; assay type: functional, organism-based
Escherichia coli [9] = assay: Antibacterial activity against Escherichia coli at 24 ug/disk; assay type: functional, organism-based
Pseudomonas aeruginosa [10] = assay: Antibacterial activity against Pseudomonas aeruginosa at 40 ug/disk; assay type: functional, organism-based
Escherichia coli [11] = assay: Antibacterial activity against Escherichia coli at 40 ug/disk; assay type: functional; details: for zone of inhibition at 40 µg/disc: read-out: IZ
Staphylococcus aureus [12] = assay: Antibacterial activity against Staphylococcus aureus at 40 ug/disk; assay type: functional; details: for zone of inhibition at 40 µg/disc: read-out: IZ

Compound | Activity (Bacillus subtilis) | Activity (Candida albicans) | Activity (Rhizomucor miehei) | inhibition zone (IZ) (Pseudomonas aeruginosa [4]) | inhibition zone (IZ) (Escherichia coli [5]) | inhibition zone (IZ) (Pseudomonas aeruginosa [10]) | other results
CC1(C)S[C@@H]2[C@H](NC(=O)[C@H](N)c3ccccc3)C(=O)N2[C@H]1C(=O)O [AMPICILLIN] | inactive | inactive | inactive | – | – | – | zone of inhibition at 1 µg/disc (Staphylococcus aureus [1]): 13 mm; zone of inhibition at 1 µg/disc (Pseudomonas aeruginosa [2]): 30 mm; zone of inhibition at 1 µg/disc (Escherichia coli [3]): 25 mm
C/C=C1\C[C@H]2C=Nc3ccccc3C(=O)N2C1 | inactive | inactive | inactive | inactive | inactive | – | inhibition zone (IZ) (Staphylococcus aureus [6]): inactive
CCc1c[nH]c(C=O)c1 | inactive | inactive | inactive | – | – | – | inhibition zone (IZ) (Staphylococcus aureus [7]): inactive; inhibition zone (IZ) (Pseudomonas aeruginosa [8]): inactive; inhibition zone (IZ) (Escherichia coli [9]): inactive
CCC1=CN2C(=O)c3ccc(OC)c(O)c3N=C[C@@H]2C1 [LIMAZEPINE C] | inactive | inactive | inactive | – | – | inactive | zone of inhibition at 40 µg/disc (Escherichia coli [11]): 10 mm; zone of inhibition at 40 µg/disc (Staphylococcus aureus [12]): 18 mm
C/C=C1\C[C@H]2C=Nc3c(ccc(OC)c3O)C(=O)N2C1 [LIMAZEPINE E] | inactive | inactive | inactive | – | – | inactive | zone of inhibition at 40 µg/disc (Escherichia coli [11]): 10 mm; zone of inhibition at 40 µg/disc (Staphylococcus aureus [12]): 12 mm
COC(=O)c1ccc(OC)c(O)c1N | inactive | inactive | inactive | inactive | inactive | – | zone of inhibition at 30 µg/disc (Staphylococcus aureus [6]): 11 mm
CCc1cc2cnc3c(O)c(OC)ccc3c(=O)n2c1 [LIMAZEPINE D] | inactive | inactive | inactive | – | inactive | – | zone of inhibition at 30 µg/disc (Pseudomonas aeruginosa [4]; read-out: IZ): 9 mm; zone of inhibition at 30 µg/disc (Staphylococcus aureus [6]): 7 mm
C/C=C1\C[C@H]2[C@@H](O)Nc3ccccc3C(=O)N2C1 | inactive | inactive | inactive | inactive | inactive | – | inhibition zone (IZ) (Staphylococcus aureus [6]): inactive
CCC1=CN2C(=O)c3ccc(OC)c(O)c3NC(=O)[C@@H]2C1 | inactive | inactive | inactive | – | – | inactive | inhibition zone (IZ) (Escherichia coli [11]): inactive; inhibition zone (IZ) (Staphylococcus aureus [12]): inactive

Reference: ChEMBL document CHEMBL1151897, “Limazepines A-F, pyrrolo[1,4]benzodiazepine Antibiotics from an Indonesian Micrococcus sp” (2009)
